Data from patent US8008488B2 (Abbott GmbH & Co. KG, priority 2003, dated 2011).

Assays:
[1] = molecular target: T1, human dopamine D3 receptors (Homo sapiens, UniProt P35462); experiment: Dopamine D3 receptor binding, displacement of [125I]-iodosulpride; conditions: membranes from HEK-293 cells with stably expressed human D3 receptors, 0.1 nM [125I]-iodosulpride
T1 construct: expressed in transfected cells
Protocol: (§1) The substance to be tested was dissolved either in methanol/Chremophor® (BASF-AG) or in dimethyl sulfoxide and then diluted with water to the desired concentration.
(§2) Triplicate mixtures were carried out.
The incubation buffer contained 50 mM Tris, 120 mM NaCl, 5 mM KCl, 2 mM CaCl2, 2 mM MgCl2 and 0.1% bovine serum albumin, 10 μM quinolone, 0.1% ascorbic acid (prepared fresh each day). The buffer was adjusted to pH 7.4 with HCl.
(§3) Measurement and Evaluation:
(§4) After incubation at 25° C. for 60 minutes, the mixtures were filtered under vacuum through Whatman GF/B glass fiber filters using a cell harvester. The filters were transferred by a filter transfer system into scintillation vials. After addition of 4 ml of Ultima Gold® (Packard), the samples were shaken for one hour and then the radioactivity was calculated in a beta counter (Packard, Tricarb 2000 or 2200CA). The cp values were converted into dpm by means of a standard quench series with the aid of the instrument's own program.
(§5) Evaluation of the inhibition plots took place by iterative nonlinear regression analysis using the Statistical Analysis System (SAS) similar to the “LIGAND” program described by Munson and Rodbard.

[2] = molecular target: T2, human dopamine D2L receptors (long isoform) (Homo sapiens, UniProt P14416); experiment: Dopamine D2L receptor binding, displacement of [125I]-iodospiperone; conditions: *Ki(D2L)/Ki(D3), HEK-293 membranes, 0.01 nM [125I]-iodospiperone
T2 construct: expressed in transfected cells
Protocol: as §1, §2
The incubation buffer contained 50 mM Tris, 120 mM NaCl, 5 mM KCl, 2 mM CaCl2, 2 mM MgCl2 and 0.1% bovine serum albumin. The buffer was adjusted to pH 7.4 with HCl.
as §3, §4, §5

T2 sequence (P14416 whole entry, canonical isoform): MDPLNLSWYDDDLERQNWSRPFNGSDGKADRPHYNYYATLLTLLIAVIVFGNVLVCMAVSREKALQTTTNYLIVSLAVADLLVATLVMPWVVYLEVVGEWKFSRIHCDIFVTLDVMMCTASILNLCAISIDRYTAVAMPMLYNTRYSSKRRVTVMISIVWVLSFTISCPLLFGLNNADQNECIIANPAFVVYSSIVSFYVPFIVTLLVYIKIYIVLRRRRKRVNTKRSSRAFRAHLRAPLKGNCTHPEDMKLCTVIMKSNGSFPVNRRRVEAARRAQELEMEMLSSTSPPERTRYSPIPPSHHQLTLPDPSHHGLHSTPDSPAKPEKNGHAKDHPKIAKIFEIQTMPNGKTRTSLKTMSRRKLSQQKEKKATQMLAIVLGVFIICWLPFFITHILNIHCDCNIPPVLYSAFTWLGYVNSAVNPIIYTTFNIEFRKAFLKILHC
T1 sequence (P35462 whole entry): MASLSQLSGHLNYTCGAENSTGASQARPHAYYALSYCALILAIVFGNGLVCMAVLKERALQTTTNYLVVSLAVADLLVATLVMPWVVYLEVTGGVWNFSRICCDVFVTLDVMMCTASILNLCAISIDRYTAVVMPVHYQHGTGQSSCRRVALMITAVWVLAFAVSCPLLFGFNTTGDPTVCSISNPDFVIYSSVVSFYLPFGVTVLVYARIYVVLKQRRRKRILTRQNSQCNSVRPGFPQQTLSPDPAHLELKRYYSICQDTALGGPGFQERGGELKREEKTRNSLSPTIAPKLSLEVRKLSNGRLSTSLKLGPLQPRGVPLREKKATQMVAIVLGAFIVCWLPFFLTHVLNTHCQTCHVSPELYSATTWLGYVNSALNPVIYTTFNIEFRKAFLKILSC

Row | Compound | Ki [1] [nM] | Selectivity D3 vs. D2L* [2]
1 | COc1cc(OC)cc(N2CCN(CCCCn3cc(C)c(=O)[nH]c3=O)CC2)c1 [Example 134, 1-{4-[4-(3,5-Dimethoxyphenyl)piperazin-1-yl]butyl}-5-methyl-1H-pyrimidine-2,4-dione] | 13.1 | 55
2 | CCCc1cc(N2CCN(CCCCn3ccc(C(C)C)nc3=O)CC2)nc(C(C)(C)C)n1 [Example 98, 4-(2-tert-Butyl-6-propylpyrimidin-4-yl)-1-[4-(4-isopropyl-2-oxo-2H-pyrimidin-1-yl)butyl]piperazine 1-fumarate] | 1.62 | 59
3 | O=c1[nH]c(=O)n(CCCCN2CCN(c3cccc(Cl)c3Cl)CC2)cc1F [Example 79, 1-{4-[4-(2,3-Dichlorophenyl)piperazin-1-yl]butyl}-5-fluoro-1H-pyrimidine-2,4-dione] | 0.86 | 30
4 | O=c1ccn(CCCCN2CCN(c3cccc(Cl)c3Cl)CC2)c(=O)[nH]1 [Example 78, 1-{4-[4-(2,3-Dichlorophenyl)piperazin-1-yl]butyl}-1H-pyrimidine-2,4-dione] | 0.32 | 48
5 | Cc1cn(CCCCN2CCN(c3cc(C(F)(F)F)nc(C(C)(C)C)n3)CC2)c(=O)nc1-c1ccccc1 [Example 26, 1-(4-{4-[2-tert-Butyl-6-(trifluoromethyl)pyrimidin-4-yl]piperazin-1-yl}butyl)-5-methyl-4-phenylpyrimidin-2(1H)-one] | 8.1 | 55
6 | Cc1cc(N2CCN(CCCCn3cc(C)c(O)nc3=O)CC2)nc(C(C)(C)C)n1 [Example 29, 1-{4-[4-(2-tert-Butyl-6-methylpyrimidin-4-yl)piperazin-1-yl]butyl}-4-hydroxy-5-methylpyrimidin-2(1H)-one] | 7.64 | 67
7 | CC(=O)O.CCCc1cc(N2CCN(CCCCn3cc(Cl)c(=O)[nH]c3=O)CC2)nc(C(C)(C)C)n1 [Example 77, 4-(2-tert-Butyl-6-propylpyrimidin-4-yl)-1-[4-(5-chloro-2,4-dioxo-3,4-dihydro-2H-pyrimidin-1-yl)butyl]piperazin-1-ium acetate] | 0.74 | 150
8 | C/C(=C\CN1CCN(c2cc(C(F)(F)F)nc(C(C)(C)C)n2)CC1)Cn1ccc(=O)[nH]c1=O [Example 46, 1-(2E)-{4-[4-(2-tert-Butyl-6-trifluoromethylpyrimidin-4-yl)piperazin-1-yl]-2-methylbut-2-enyl}-1H-pyrimidine-2,4-dione] | 5.41 | 43
9 | CCCc1cc(N2CCN(C(C)CCCn3cc(C)c(=O)[nH]c3=O)CC2)nc(C(C)(C)C)n1.Cl (stereo not shown) [Example 38, 4-(2-tert-Butyl-6-propylpyrimidin-4-yl)-1-[1-methyl-4-(5-methyl-2,4-dioxo-3,4-dihydropyrimidin-1 (2H)-yl)butyl]piperazin-1-ium chloride] | 5.33 | 103
10 | CCc1cn(CCCCN2CCN(c3cc(C(F)(F)F)nc(C(C)(C)C)n3)CC2)c(=O)[nH]c1=O [Example 83, 4-(2-tert-Butyl-6-trifluoromethylpyrimidin-4-yl)-1-[4-(5-ethyl-2,4-dioxo-3,4-dihydro-2H-pyrimidin-1-yl)butyl]piperazine 1-fumarate] | 1.66 | 89
11 | Cc1cn(CCCCN2CCN(c3cc(C(F)(F)F)nc(C(C)(C)C)n3)CC2)c(=O)n(C)c1=O [Example 25, 1-(4-{4-[2-tert-Butyl-6-(trifluoromethyl)pyrimidin-4-yl]piperazin-1-yl}butyl)-3,5-dimethylpyrimidine-2,4(1H,3H)-dione] |  | 34
12 | Cn1c(=O)ccn(CCCCN2CCN(c3cc(C(F)(F)F)nc(C(C)(C)C)n3)CC2)c1=O [Example 27, 1-(4-{4-[2-tert-Butyl-6-(trifluoromethyl)pyrimidin-4-yl]piperazin-1-yl}butyl)-3-methylpyrimidine-2,4(1H,3H)-dione] |  | 52
